Data reported in ChEMBL document CHEMBL5143724, “Small Molecules Promote Selective Denaturation and Degradation of Tubulin Heterodimers through a Low-Barrier Hydrogen Bond” (J Med Chem, 2022).
Activity calls are given as the source filed them.

Experiments:
HeLa [1] = assay: Antiproliferative activity against human Hela cells assessed as cell viability at 0.001 to 100 microM incubated for 72 hrs by MTT assay; assay type: functional, cell-based; conditions: dose 0.001-100 µM
NCI-H460 [2] = assay: Antiproliferative activity against human NCI-H460 cells assessed as cell viability at 0.001 to 100 uM incubated for 72 hrs by MTT assay; assay type: functional, cell-based; conditions: dose 0.001-100 µM
HCT-116 [3] = assay: Antiproliferative activity against human HCT-116 cells assessed as cell viability at 0.001 to 100 uM incubated for 72 hrs by MTT assay; assay type: functional, cell-based; conditions: dose 0.001-100 µM
HeLa [4] = assay: Induction of apoptosis in human HeLa cells assessed as accumulation of cells at G2/M phase 0.1 to 10 uM incubated for 16 hrs by propidium iodide staining based flow cytometry; assay type: functional, cell-based; conditions: dose 0.1-10 µM
HCT-116 [5] = assay: Induction of apoptosis in human HCT-116 cells assessed as accumulation of cells at G2/M phase 0.1 to 10 uM incubated for 16 hrs by propidium iodide staining based flow cytometry; assay type: functional, cell-based; conditions: dose 0.1-10 µM
NCI-H460 [6] = assay: In vivo antitumor activity against human NCI-H460 cells xenografted in Balb/c nude athymic mouse assessed as inhibition of tumor growth administered ip once a week and measured every 2 days for 24 days; assay type: functional, organism-based; conditions: dose 10-40 mg/kg, time 2.0 day, DDE = dose-dependent effect
HCT-116 [7] = assay: In vivo antitumor activity against human HCT-116 cells xenografted in Balb/c nude athymic mouse assessed as inhibition of tumor growth administered ip once a week and measured every 2 days for 24 days; assay type: functional, organism-based; conditions: dose 10-40 mg/kg, time 2.0 day, DDE = dose-dependent effect
HeLa [8] = assay: Downregulation of Alpha tubulin level in human HeLa cells at 1 uM measured for 6 hrs by tandem mass tag quantitative proteomic analysis; assay type: functional, cell-based
HeLa [9] = assay: Downregulation of Beta tubulin level in human HeLa cells at 1 uM measured for 6 hrs by tandem mass tag quantitative proteomic analysis; assay type: functional, cell-based
HeLa [10] = assay: Downregulation of Alpha tubulin level in human HeLa cells incubated for 24 hrs by immunoblot analysis; assay type: functional, cell-based; conditions: dose 0.1-10 µM, DDE = dose-dependent effect
HeLa [11] = assay: Downregulation of Beta tubulin level in human HeLa cells incubated for 24 hrs by immunoblot analysis; assay type: functional, cell-based; conditions: dose 0.1-10 µM, DDE = dose-dependent effect
HCT-116 [12] = assay: Downregulation of Alpha tubulin level in human HCT-116 cells incubated for 24 hrs by immunoblot analysis; assay type: functional, cell-based; conditions: dose 0.1-10 µM, DDE = dose-dependent effect
HCT-116 [13] = assay: Downregulation of Beta tubulin level in human HCT-116 cells incubated for 24 hrs by immunoblot analysis; assay type: functional, cell-based; conditions: dose 0.1-10 µM, DDE = dose-dependent effect
NCI-H460 [14] = assay: Downregulation of Alpha tubulin level in human NCI-H460 cells incubated for 24 hrs by immunoblot analysis; assay type: functional, cell-based; conditions: dose 0.1-10 µM, DDE = dose-dependent effect
NCI-H460 [15] = assay: Downregulation of Beta tubulin level in human NCI-H460 cells incubated for 24 hrs by immunoblot analysis; assay type: functional, cell-based; conditions: dose 0.1-10 µM, DDE = dose-dependent effect
SU-DHL-6 [16] = assay: Downregulation of Alpha tubulin level in human SU-DHL-6 cells incubated for 24 hrs by immunoblot analysis; assay type: functional, cell-based; conditions: dose 0.1-10 µM, DDE = dose-dependent effect
SU-DHL-6 [17] = assay: Downregulation of Beta tubulin level in human SU-DHL-6 cells incubated for 24 hrs by immunoblot analysis; assay type: functional, cell-based; conditions: dose 0.1-10 µM, DDE = dose-dependent effect
HeLa [18] = assay: Downregulation of Alpha tubulin level in human HeLa cells at 1 uM by immunoblot analysis; assay type: functional, cell-based; conditions: time 1-16 hrs, TDE = time-dependent effect
HeLa [19] = assay: Downregulation of Beta tubulin level in human HeLa cells at 1 uM by immunoblot analysis; assay type: functional, cell-based; conditions: time 1-16 hrs, TDE = time-dependent effect
HCT-116 [20] = assay: Downregulation of Alpha tubulin level in human HCT-116 cells at 1 uM by immunoblot analysis; assay type: functional, cell-based; conditions: time 1-16 hrs, TDE = time-dependent effect
HCT-116 [21] = assay: Downregulation of Beta tubulin level in human HCT-116 cells at 1 uM by immunoblot analysis; assay type: functional, cell-based; conditions: time 1-16 hrs, TDE = time-dependent effect
HeLa [22] = assay: Reduction in Alpha tubulin mRNA expression in human HeLa cells at 1 uM measured upto 16 hrs by qPCR analysis; assay type: functional, cell-based
HeLa [23] = assay: Reduction in Beta tubulin mRNA expression in human HeLa cells at 1 uM measured upto 16 hrs by qPCR analysis; assay type: functional, cell-based
HCT-116 [24] = assay: In vivo antitumor activity against human HCT-116 cells xenografted in mouse model assessed as reduction in alpha tubulin level at 80 mg/kg administered once through tail vein injection measured after 24 hrs by immunoblot analysis; assay type: functional, organism-based
HCT-116 [25] = assay: In vivo antitumor activity against human HCT-116 cells xenografted in mouse model assessed as reduction in beta tubulin level at 80 mg/kg administered once through tail vein injection measured after 24 hrs by immunoblot analysis; assay type: functional, organism-based
Tubulin (Sus scrofa) [26] = biological target: T1, Tubulin (Sus scrofa) (UniProt P02554+P02550); assay: Inhibition of porcine tubulin polymerization measured every 1 min for 30 mins in presence of GTP by microplate reader analysis; assay type: protein assay; conditions: dose 5-20 µM, DDE = dose-dependent effect
T1 sequence (P02550 whole entry, looked up): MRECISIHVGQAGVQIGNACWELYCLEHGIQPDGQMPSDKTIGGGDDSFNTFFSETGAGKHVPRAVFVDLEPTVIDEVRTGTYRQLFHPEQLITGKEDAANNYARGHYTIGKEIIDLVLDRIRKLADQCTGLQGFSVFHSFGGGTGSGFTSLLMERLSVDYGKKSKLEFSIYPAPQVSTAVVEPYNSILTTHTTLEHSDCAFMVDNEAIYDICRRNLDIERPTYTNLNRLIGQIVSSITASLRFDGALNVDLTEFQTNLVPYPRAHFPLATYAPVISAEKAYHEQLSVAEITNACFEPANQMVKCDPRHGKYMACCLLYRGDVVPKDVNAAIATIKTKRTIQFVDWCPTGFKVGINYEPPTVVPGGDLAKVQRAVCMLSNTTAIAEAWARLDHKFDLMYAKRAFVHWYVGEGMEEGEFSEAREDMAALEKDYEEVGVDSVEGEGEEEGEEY
T1 sequence (P02554 whole entry, looked up): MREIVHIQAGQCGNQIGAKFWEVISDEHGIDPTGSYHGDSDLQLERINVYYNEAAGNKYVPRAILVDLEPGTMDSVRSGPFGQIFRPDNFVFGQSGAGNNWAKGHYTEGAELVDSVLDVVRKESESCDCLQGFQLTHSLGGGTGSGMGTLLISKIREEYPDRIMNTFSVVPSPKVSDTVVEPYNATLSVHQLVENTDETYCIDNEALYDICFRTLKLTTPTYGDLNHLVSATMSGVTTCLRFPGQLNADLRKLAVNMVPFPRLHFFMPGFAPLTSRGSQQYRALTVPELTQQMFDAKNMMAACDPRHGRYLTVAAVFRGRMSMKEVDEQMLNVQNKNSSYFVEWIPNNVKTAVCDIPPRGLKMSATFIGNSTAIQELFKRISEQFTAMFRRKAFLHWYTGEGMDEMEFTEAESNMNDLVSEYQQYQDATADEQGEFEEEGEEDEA

Tubulin alpha = assay: Induction of Alpha tubulin degradation in human HeLa cells incubated for 24 hrs by immunoblot analysis; assay type: cell-based
Tubulin beta = assay: Induction of Beta tubulin degradation in human HeLa cells incubated for 24 hrs by immunoblot analysis; assay type: cell-based
[27] = biological target: T2, Tubulin alpha (Homo sapiens) (UniProt P0DPH7+P68366+Q71U36+P68363+Q9BQE3+Q6PEY2+A6NHL2+Q9NY65); assay: Induction of Alpha tubulin degradation in human HeLa cells at 1 uM incubated for 16 hrs in presence of pironetin by immunoblot analysis; assay type: cell-based
[28] = biological target: T2, Tubulin alpha (Homo sapiens); assay: Induction of Alpha tubulin degradation in human HeLa cells at 1 uM incubated for 16 hrs in presence of vinblastine by immunoblot analysis; assay type: cell-based
[29] = biological target: T2, Tubulin alpha (Homo sapiens); assay: Induction of Alpha tubulin degradation in human HeLa cells at 1 uM incubated for 16 hrs in presence of maytansine by immunoblot analysis; assay type: cell-based
[30] = biological target: T3, Tubulin beta (Homo sapiens) (UniProt P68371+Q9H4B7+Q13509+P04350+Q3ZCM7+P07437+Q13885+Q9BVA1+Q9BUF5+A6NNZ2); assay: Induction of Beta tubulin degradation in human HeLa cells at 1 uM incubated for 16 hrs in presence of pironetin by immunoblot analysis; assay type: cell-based
[31] = biological target: T3, Tubulin beta (Homo sapiens); assay: Induction of Beta tubulin degradation in human HeLa cells at 1 uM incubated for 16 hrs in presence of maytansine by immunoblot analysis; assay type: cell-based
[32] = biological target: T3, Tubulin beta (Homo sapiens); assay: Induction of Beta tubulin degradation in human HeLa cells at 1 uM incubated for 16 hrs in presence of vinblastine by immunoblot analysis; assay type: cell-based
[33] = biological target: T3, Tubulin beta (Homo sapiens); assay: Binding affinity to Beta-tubulin colchicine binding site in human HeLa cells assessed as inhibition of tubulin-EBI adduct formation at 2 to 25 uM pretreated fo 1 hr with compound followed by EBI addition measured after 2 hrs by Western blotting analysis; assay type: cell-based; conditions: dose 2-25 µM, time 3.0 hrs
[34] = biological target: T2, Tubulin alpha (Homo sapiens); assay: Induction of Alpha tubulin degradation in human HeLa cells assessed as increase in ubiquitination level of Alpha tubulin at 1 to 10 uM incubated for 6 hrs by immunoblot analysis; assay type: cell-based; conditions: dose 1-10 µM
[35] = biological target: T3, Tubulin beta (Homo sapiens); assay: Induction of Beta tubulin degradation in human HeLa cells assessed as increase in ubiquitination level of Beta tubulin at 1 to 10 uM incubated for 6 hrs by immunoblot analysis; assay type: cell-based; conditions: dose 1-10 µM
Tubulin (Homo sapiens) [36] = biological target: T4, Tubulin (Homo sapiens) (UniProt P68371+Q9H4B7+P0DPH7+P68366+Q13509+Q71U36+P04350+Q3ZCM7+P07437+P68363+Q9BQE3+Q6PEY2+Q13885+Q9BVA1+Q9BUF5); assay: Induction of tubulin degradation in human HeLa cells assessed as ubiquitin of total protein at 0.01 to 100 uM incubated for 16 hrs by immunoblot analysis; assay type: cell-based; conditions: dose 0.01-100 µM
Tubulin (Homo sapiens) [37] = biological target: T4, Tubulin (Homo sapiens); assay: Induction of tubulin aggregation in human HeLa cells by size-exclusion chromatography; assay type: cell-based
Tubulin (Sus scrofa) [38] = biological target: T1, Tubulin (Sus scrofa); assay: Induction of porcine tubulin aggregation assessed as formation of spherical sized tubulin aggregates at 20 uM incubated for 4 hrs by TEM analysis; assay type: protein assay
Tubulin (Homo sapiens) [39] = biological target: T4, Tubulin (Homo sapiens); assay: Induction of tubulin […] (unknown origin) assessed as increase in turbidity at 5 to 20 uM measured every one min for 30 mins by absorbance based analysis; assay type: protein-complex assay; conditions: dose 5-20 µM
Tubulin (Homo sapiens) [40] = biological target: T4, Tubulin (Homo sapiens); assay: Destabilization of tubulin (unknown origin) assessed as melting temperature at 30 uM incubated for 20 mins by differential scanning fluorimetry; assay type: protein-complex assay
[41] = test system: Tubulin beta (Homo sapiens), P68371+Q9H4B7+Q13509+P04350+Q3ZCM7+P07437+Q13885+Q9BVA1+Q9BUF5+A6NNZ2 [UNDEFINED MUTATION]; assay: Induction of FLAG tagged Beta tubulin (unknown origin) Y200F mutant transfected in human HeLa cells incubated for 16 hrs by immunoblotting analysis; assay type: cell-based
[42] = biological target: T3, Tubulin beta (Homo sapiens); assay: Induction of wild type flag tagged Beta tubulin (unknown origin) transfected in HeLa cells incubated for 16 hrs by immunoblotting analysis; assay type: cell-based
HeLa [43] = assay: Induction of FLAG tagged Beta tubulin E198G mutant (unknown origin) transfected in HeLa cells incubated for 16 hrs by immunoblotting analysis; assay type: cell-based; conditions: Homo sapiens
HeLa [44] = assay: Induction of FLAG tagged Beta tubulin E198Q mutant (unknown origin) transfected in HeLa cells incubated for 16 hrs by immunoblotting analysis; assay type: cell-based; conditions: Homo sapiens
[45] = test system: Tubulin beta (Homo sapiens), P68371+Q9H4B7+Q13509+P04350+Q3ZCM7+P07437+Q13885+Q9BVA1+Q9BUF5+A6NNZ2 [UNDEFINED MUTATION]; assay: Induction of FLAG tagged Beta tubulin E198D mutant (unknown origin) transfected in HeLa cells incubated for 16 hrs by immunoblotting analysis; assay type: cell-based
HeLa [46] = assay: Antiproliferative activity against human HeLa cells assessed as cell viability at 0.001 to 100 uM incubated for 48 hrs by MTT assay; assay type: functional, cell-based; conditions: dose 0.001-100 µM
[47] = biological target: T3, Tubulin beta (Homo sapiens); assay: Induction of Beta tubulin degradation in human HeLa cells at 0.001 to 100 uM incubated for 16 hrs by immunoblotting analysis; assay type: cell-based; conditions: dose 0.001-100 µM

c1ccc(Oc2cccc(CNc3cc4c(cn3)[nH]c3ccccc34)c2)cc1
524 nM: DC50 (Tubulin beta)
182 nM: DC50 (Tubulin alpha)
51.5 °C: Tm (Tubulin (Homo sapiens) [40])
active: Activity (HeLa [1]) | Activity (NCI-H460 [2]) | Activity (HCT-116 [3]) | Activity (HeLa [4]) | Activity (HCT-116 [5]) | Activity (NCI-H460 [6]) Dde | Activity (HCT-116 [7]) Dde | Activity (HeLa [8]) | Activity (HeLa [9]) | Activity (HeLa [10]) Dde | Activity (HeLa [11]) Dde | Activity (HCT-116 [12]) Dde | Activity (HCT-116 [13]) Dde | Activity (NCI-H460 [14]) Dde | Activity (NCI-H460 [15]) Dde | Activity (SU-DHL-6 [16]) Dde | Activity (SU-DHL-6 [17]) Dde | Activity (HeLa [18]) Tde | Activity (HeLa [19]) Tde | Activity (HCT-116 [20]) Tde | Activity (HCT-116 [21]) Tde | Activity (HeLa [22]) | Activity (HeLa [23]) | Activity (HCT-116 [24]) | Activity (HCT-116 [25]) | inhibition (Tubulin (Sus scrofa) [26]) Dde | Activity [27] | Activity [28] | Activity [29] | Activity [30] | Activity [31] | Activity [32] | Activity [33] | Activity [34] | Activity [35] | Activity (Tubulin (Homo sapiens) [36]) | Activity (Tubulin (Homo sapiens) [37]) | Activity (Tubulin (Sus scrofa) [38]) | Activity (Tubulin (Homo sapiens) [39]) | Activity [41] | Activity [42] | Activity (HeLa [43]) | Activity (HeLa [44]) | Activity [45]

c1ccc2c(c1)[nH]c1cnc(NCC3CCCCC3)cc12
active: Activity (HeLa [46]) | Activity [47]

c1ccc(Oc2cccc(CNc3cc4ccccc4cn3)c2)cc1
active: Activity (HeLa [46]) | Activity [47]

c1ccc(CNc2cc3c(cn2)[nH]c2ccccc23)cc1
active: Activity (HeLa [46]) | Activity [47]
